According to patent publication US20130116227A1, “BIARYL AMIDE DERIVATIVE OR PHARMACEUTICALLY ACCEPTABLE SALT THEREOF” (DAINIPPON SUMITOMO PHARMA CO., LTD., priority 2010, published 2013):

The compounds below were run against T1, aldosterone receptor (Rattus norvegicus, UniProt P22199) (assay: Binding inhibition test for aldosterone receptor ([3H]aldosterone, rat renal soluble fraction)). Conditions: [3H]aldosterone 2 nM, rat renal soluble fraction, in the presence of 2 μM RU-486, 4° C. about 18 hours; read-out: MR IC50.
T1 construct: centrifuged at 105,000 g for 30 minutes, and then a supernatant was collected as a renal soluble fraction; from tissue; host or cells: rat kidney (adrenalectomized rat), 105,000 g supernatant (cytosol)
T1 sequence (P22199 1-981): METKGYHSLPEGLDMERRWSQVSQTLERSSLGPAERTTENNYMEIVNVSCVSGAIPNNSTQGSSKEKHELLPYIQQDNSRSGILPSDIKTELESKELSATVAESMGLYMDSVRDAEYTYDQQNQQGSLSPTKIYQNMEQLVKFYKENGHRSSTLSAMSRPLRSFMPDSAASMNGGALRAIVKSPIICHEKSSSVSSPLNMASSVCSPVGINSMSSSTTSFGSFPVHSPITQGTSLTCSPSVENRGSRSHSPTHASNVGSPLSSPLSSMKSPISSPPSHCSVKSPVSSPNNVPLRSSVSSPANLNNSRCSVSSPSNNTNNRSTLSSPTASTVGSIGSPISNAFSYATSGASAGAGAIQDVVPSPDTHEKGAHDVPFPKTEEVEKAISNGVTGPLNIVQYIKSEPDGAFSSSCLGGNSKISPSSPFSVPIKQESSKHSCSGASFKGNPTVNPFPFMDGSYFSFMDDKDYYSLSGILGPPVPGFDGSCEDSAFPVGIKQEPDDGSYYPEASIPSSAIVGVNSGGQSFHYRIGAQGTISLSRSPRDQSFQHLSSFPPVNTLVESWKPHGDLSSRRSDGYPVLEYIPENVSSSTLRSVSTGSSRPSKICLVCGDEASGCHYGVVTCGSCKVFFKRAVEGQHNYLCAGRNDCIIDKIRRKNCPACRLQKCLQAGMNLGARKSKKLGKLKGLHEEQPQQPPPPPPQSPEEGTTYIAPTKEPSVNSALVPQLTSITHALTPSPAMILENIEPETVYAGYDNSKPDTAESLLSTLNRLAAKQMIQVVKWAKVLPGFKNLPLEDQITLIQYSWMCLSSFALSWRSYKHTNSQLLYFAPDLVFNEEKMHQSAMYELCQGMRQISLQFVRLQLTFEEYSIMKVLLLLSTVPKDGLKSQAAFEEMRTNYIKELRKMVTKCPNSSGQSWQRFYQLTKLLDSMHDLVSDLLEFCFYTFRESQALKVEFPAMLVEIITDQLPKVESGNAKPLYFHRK
Method: Binding Inhibition Test for Aldosterone Receptor
A rat was layed open in flank regions (on both sides) to remove both adrenal glands. After stitching up the incision, the rat was returnd to a breeding cage again. After removing the kidney from the rat reared for about 3 to 5 days, the kidney was homogenized in 0.1 M Tris-HCl, 0.25M sucrose, 0.1M Na2MoO4 and 2 mM DTT buffer solution (pH7.4). The resultant was centrifuged at 105,000 g for 30 minutes, and then a supernatant was collected as a renal soluble fraction.
The rat renal soluble fraction (0.5 to 1.5 mg), a labeled ligand [^3H] aldosterone (2 nM) and a test article were reacted in the presence of 2 μM RU-486 (glucocorticoid receptor antagonist) in 100 μL of total amounts at 4° C. for about 18 hours. Afterwards, to the reaction solution was added 50 μL of 5% dextran-coated activated charcoal, and the mixture was immingled, and then centrifuged at 3,000 g for 5 minutes. Then, a supernatant (100 μL) was collected and mixed with a liquid scintillator ACS-II (Amersham) (3.5 mL), and then analyzed its radioactivity by a liquid scintillation counter (manufactured by Packard, Tri Carb 2700TR). A non-specific binding was obtained by addition of 2 μM aldosterone to a reaction solution. […]
Binding inhibition rate (%)=100−{(B−N)/(B0−N)}×100
B: labeled ligand binding amounts in the presence of a test article and a labeled ligand
B0: labeled ligand binding amounts in the absence of a test article
N: labeled ligand binding amounts in the presence of excess aldosterone (2 μM)
Test example 1 was carried out for compounds obtained in the Examples.

| Structure (SMILES) | IC50 |
| --- | --- |
| CS(=O)(=O)c1ccc(NC(=O)c2ccc(-c3ccccc3OC(F)(F)F)c(CN3CCOCC3)c2)cc1 [Example 162] | 660 nM |
| CS(=O)(=O)c1ccc(NC(=O)c2ccc(-c3ccccc3OC(F)(F)F)c(CN3CCCOCC3)c2)cc1 [Example 163] | < 10000 nM |
| CS(=O)(=O)c1ccc(NC(=O)c2ccc(-c3ccccc3OC(F)(F)F)c(CN3CC(F)(F)C3)c2)cc1 [Example 171] | < 10000 nM |
| CS(=O)(=O)c1ccc(NC(=O)c2ccc(-c3ccccc3OC(F)(F)F)c(CN3CCC(F)(F)CC3)c2)cc1 [Example 174] | 940 nM |
| CS(=O)(=O)c1ccc(NC(=O)c2ccc(-c3ccccc3OC(F)(F)F)c(CNCC(F)F)c2)cc1 [Example 176] | 390 nM |
| CCN(Cc1ccccc1)Cc1cc(C(=O)Nc2ccc(S(C)(=O)=O)cc2)ccc1-c1ccccc1OC(F)(F)F [Example 189] | < 10000 nM |
| CS(=O)(=O)c1ccc(NC(=O)c2ccc(-c3ccccc3OC(F)(F)F)c(CNCCOc3ccccc3)c2)cc1 [Example 190] | < 10000 nM |
| CN(Cc1cc(C(=O)Nc2ccc(S(C)(=O)=O)cc2)ccc1-c1ccccc1OC(F)(F)F)C1CCCCC1 [Example 202] | 760 nM |
| CCC(C)(C)NCc1cc(C(=O)Nc2ccc(S(C)(=O)=O)cc2)ccc1-c1ccccc1OC(F)(F)F [Example 206] | < 10000 nM |
| CS(=O)(=O)c1ccc(NC(=O)c2ccc(-c3ccccc3OC(F)(F)F)c(CN[C@H]3CCCc4ccccc43)c2)cc1 [Example 211] | 910 nM |
| CS(=O)(=O)c1ccc(NC(=O)c2ccc(-c3ccccc3OC(F)(F)F)c(CNCC3CCCCC3)c2)cc1 [Example 221] | < 10000 nM |
| CC(C)CCNCc1cc(C(=O)Nc2ccc(S(C)(=O)=O)cc2)ccc1-c1ccccc1OC(F)(F)F [Example 226] | < 10000 nM |
| CN(Cc1ccc(F)cc1)Cc1cc(C(=O)Nc2ccc(S(C)(=O)=O)cc2)ccc1-c1ccccc1OC(F)(F)F [Example 231] | < 10000 nM |
| COc1cc(NC(=O)c2ccc(-c3ccccc3C(F)(F)F)c(C(O)C(F)(F)F)c2)ccc1S(N)(=O)=O (stereo not shown) [Example 244] | 680 nM |
| COc1cc(NC(=O)c2ccc(-c3ccccc3-c3nc(C)no3)c(CO)c2)ccc1S(N)(=O)=O [Example 259] | 450 nM |
| COc1cc(NC(=O)c2ccc(-c3ccccc3OC(F)(F)C(F)F)c(CO)c2)ccc1S(N)(=O)=O [Example 260] | 440 nM |
| COc1cc(NC(=O)c2ccc(-c3ccccc3C(F)(F)F)c(CNCC(F)F)c2)ccc1S(N)(=O)=O [Example 268] | 990 nM |
| COc1ccc(-c2ccc(C(=O)Nc3ccc(S(N)(=O)=O)c(OC)c3)cc2CNCC(F)F)c(C(F)(F)F)c1 [Example 270] | 650 nM |
| COc1cc(NC(=O)c2ccc(-c3ccc(N)cc3C(F)(F)F)c(C)c2)ccc1S(N)(=O)=O [Example 271] | 370 nM |
| COc1cc(NC(=O)c2ccc(-c3ccc(O)cc3C(F)(F)F)c(C)c2)ccc1S(N)(=O)=O [Example 272] | 400 nM |
| COc1cc(NC(=O)c2ccc(-c3ncccc3C(F)(F)F)c(C)c2)ccc1S(N)(=O)=O [Example 279] | 4100 nM |
| COc1cc(NC(=O)c2ccc(-c3cccnc3C3CCC3)c(C)c2)ccc1S(N)(=O)=O [Example 282] | 730 nM |
| CCCOc1ccc(-c2ccc(NC(=O)c3ccc(S(N)(=O)=O)c(OC)c3)cc2CO)c(C(F)(F)F)c1 [Example 313] | 2200 nM |
| COc1cc(C(=O)Nc2ccc(-c3ccc(O)cc3C(F)(F)F)c(CO)c2)ccc1S(N)(=O)=O [Example 315] | 420 nM |
| COc1cc(C(=O)Nc2ccc(-c3ccc(OCCO)cc3C(F)(F)F)c(CO)c2)ccc1S(N)(=O)=O [Example 320] | 2500 nM |
| COc1cc(C(=O)Nc2ccc(-c3ccccc3CN3CCOCC3)c(C)c2)ccc1S(N)(=O)=O [Example 337] | 1100 nM |
| COc1cc(C(=O)Nc2ccc(-c3ccccc3N3CCCCC3)c(C)c2)ccc1S(N)(=O)=O [Example 342] | 470 nM |

Other lines, results leading:

| IC50 | Structure (SMILES) |
| --- | --- |
| 280 nM | CS(=O)(=O)c1ccc(NC(=O)c2ccc(-c3ccccc3OC(F)(F)F)c(CNCc3ccccc3)c2)cc1 [Example 180] |
| 350 nM | Cn1cccc1CNCc1cc(C(=O)Nc2ccc(S(C)(=O)=O)cc2)ccc1-c1ccccc1OC(F)(F)F [Example 182] |
| 370 nM | Cn1ccnc1CNCc1cc(C(=O)Nc2ccc(S(C)(=O)=O)cc2)ccc1-c1ccccc1OC(F)(F)F [Example 218] |
| < 100 nM | CS(=O)(=O)c1ccc(NC(=O)c2ccc(-c3ccccc3OC(F)(F)F)c(CN[C@@H]3CCCc4ccccc43)c2)cc1 [Example 229] |
| 84 nM | COc1cc(NC(=O)c2ccc(-c3ccccc3-c3cccs3)c(CO)c2)ccc1S(N)(=O)=O [Example 257] |
| 360 nM | CCN(CC)c1cc(C(=O)Nc2ccc(S(N)(=O)=O)cc2)ccc1-c1ccccc1OC(F)(F)F [Example 265] |
| 180 nM | COc1cc(NC(=O)c2ccc(-c3ccccc3OC(F)(F)F)c(CN3CCC(F)(F)CC3)c2)ccc1S(N)(=O)=O [Example 286] |
| 250 nM | COc1cc(NC(=O)c2ccc(-c3ccccc3OC(F)(F)F)c(CN3CC(F)(F)C3)c2)ccc1S(N)(=O)=O [Example 287] |
| 120 nM | COc1cc(NC(=O)c2ccc(-c3ccccc3OC(F)(F)F)c(CNC3CC3)c2)ccc1S(N)(=O)=O [Example 288] |
| 360 nM | COc1cc(NC(=O)c2ccc(-c3ccccc3OC(F)(F)F)c(CNC3CCC3)c2)ccc1S(N)(=O)=O [Example 289] |
| 270 nM | COc1cc(NC(=O)c2ccc(-c3ccccc3OC(F)(F)F)c(CNc3nnn[nH]3)c2)ccc1S(N)(=O)=O [Example 293] |
| 22 nM | COc1cc(NC(=O)c2ccc(-c3ccccc3OC(F)(F)F)c(CN(C)C3CC3)c2)ccc1S(N)(=O)=O [Example 294] |
| 100 nM | CCN(CC)Cc1cc(C(=O)Nc2ccc(S(N)(=O)=O)c(OC)c2)ccc1-c1ccccc1OC(F)(F)F [Example 295] |
| 190 nM | COc1cc(NC(=O)c2ccc(-c3ccccc3OC(F)(F)F)c(CN3CCCCC3)c2)ccc1S(N)(=O)=O [Example 297] |
| 140 nM | COc1cc(NC(=O)c2ccc(-c3ccccc3OC(F)(F)F)c(CN3CCCCCCC3)c2)ccc1S(N)(=O)=O [Example 299] |
| 61 nM | COc1cc(NC(=O)c2ccc(-c3ccccc3OC(F)(F)F)c(CN3CC(C)OC(C)C3)c2)ccc1S(N)(=O)=O (stereo not shown) [Example 302] |
| 150 nM | COc1cc(NC(=O)c2ccc(-c3ccccc3OC(F)(F)F)c(CN3CCCOCC3)c2)ccc1S(N)(=O)=O [Example 303] |
| 150 nM | COc1cc(NC(=O)c2ccc(-c3ccccc3OC(F)(F)F)c(CN3CC(F)(F)C(F)(F)C3)c2)ccc1S(N)(=O)=O [Example 305] |
| 230 nM | COc1cc(NC(=O)c2ccc(-c3ccccc3OC(F)(F)F)c(CNC3=NCCO3)c2)ccc1S(N)(=O)=O [Example 309] |
| 250 nM | COc1cc(C(=O)Nc2ccc(-c3ccccc3C(F)(F)F)c(CO)c2)ccc1S(N)(=O)=O [Example 323-2] |
| 190 nM | COc1cc(C(=O)Nc2ccc(-c3ccccc3C(F)(F)F)c(CCl)c2)ccc1S(N)(=O)=O [Example 324] |
| 220 nM | COc1cc(C(=O)Nc2ccc(-c3ccccc3C(F)(F)F)c(CNCc3ccco3)c2)ccc1S(N)(=O)=O [Example 329] |
| 280 nM | COc1cc(C(=O)Nc2ccc(-c3ccccc3C(F)(F)F)c(COCCCO)c2)ccc1S(N)(=O)=O [Example 333] |
| 350 nM | COc1cc(C(=O)Nc2ccc(-c3ccccc3OC(F)(F)F)c(CCO)c2)ccc1S(N)(=O)=O [Example 335] |
| 140 nM | COc1cc(C(=O)Nc2ccc(-c3ccccc3N3C[C@@H](C)O[C@@H](C)C3)c(C)c2)ccc1S(N)(=O)=O [Example 345] |
